From patent publication US9314510B2, “Human laminin α2 chain LG3 domain and active peptides promoting cell adhesion, spreading, migration, and neurite outgrowth” (SNU R&DB Foundation, priority 2011, dated 2016)

Columns and labels:
PKCα/β = PKCα/β inhibitor; cited from earlier work
FAK Tyr-397 = experiment: Effect of PKC inhibitors on FAK phosphorylation at Tyr-397; format: cell-based, rat; conditions: PC12 cells pretreated with 5 nM Gö6976 or 5 μM rottlerin 15 min, laminin, rLG3, Ln2-LG3-P2 plates
Procedure: PC12 cells were pretreated with 5 nM Gö6976 or 5 μM rottlerin for 15 min at 37° C. and seeded on laminin-, rLG3-, or Ln2-LG3-P2-coated plates for 15 min in serum-free medium.

PC12 cells [1] = experiment: Cell viability with PKC inhibitors; conditions: at the concentrations used and duration of treatment
PC12 cells [2] = experiment: Effect of PKC inhibitor pretreatment on cell adhesion, spreading, migration and stress fiber formation; format: cell-based, rat; conditions: Gö6976 2.5 or 5.0 nM, rottlerin 1 or 5 μM, 15 min
Procedure: PC12 cells were pretreated with Gö6976 or rottlerin for 15 min at 37° C. and seeded on laminin-, rLG3-, or Ln2-LG3-P2-coated plates and then, cell adhesion, spreading, migration, and stress fiber formation were observed. To observe cell adhesion, the pretreated PC12 cells were incubated for 1 h and to observe cell spreading and stress fiber formation, the pretreated PC12 cells were incubated on the coated plates for 3 h. In addition, to observe cell migration, the pretreated PC12 cells were incubated on the coated plates for 24 h.

PC12 cells [3] = experiment: Effect of PLC inhibitor on cell adhesion and spreading; format: cell-based, rat; conditions: 0.5 or 1.0 μM
PC12 cells [4] = conditions: cited from earlier work
PC12 cells [5] = experiment: Effect of Rho-kinase inhibitor on stress fibers; format: cell-based, rat; conditions: cells seeded 1 h, then 10 μM for 2 h
Procedure: PC12 cells were seeded on glass slide chambers coated with laminin, rLG3, or Ln2-LG3-P2 for 1 h. The cells were treated with […] Y27632, a selective inhibitor of Rho-associated protein kinase, for 2 h in serum-free medium and immunostained with rhodamine-phalloidin.

fibroblasts = conditions: 1-3 μM; cited from earlier work
PKCδ = PKCδ (Homo sapiens, UniProt Q05655); conditions: PKCδ inhibitor; cited from earlier work
PC12 cells [6] = experiment: Effect of rottlerin on stress fibers of already spread cells; format: cell-based, rat; conditions: 2.5 h incubation, then 5 μM for 30 min
Procedure: PC12 cells were seeded on glass slide chambers coated with laminin, rLG3, or Ln2-LG3-P2. After 2.5 h incubation, the cells were treated with 5 μM rottlerin for 30 min and immunostained with rhodamine-phalloidin.

Sequence of PKCδ (Q05655 whole entry): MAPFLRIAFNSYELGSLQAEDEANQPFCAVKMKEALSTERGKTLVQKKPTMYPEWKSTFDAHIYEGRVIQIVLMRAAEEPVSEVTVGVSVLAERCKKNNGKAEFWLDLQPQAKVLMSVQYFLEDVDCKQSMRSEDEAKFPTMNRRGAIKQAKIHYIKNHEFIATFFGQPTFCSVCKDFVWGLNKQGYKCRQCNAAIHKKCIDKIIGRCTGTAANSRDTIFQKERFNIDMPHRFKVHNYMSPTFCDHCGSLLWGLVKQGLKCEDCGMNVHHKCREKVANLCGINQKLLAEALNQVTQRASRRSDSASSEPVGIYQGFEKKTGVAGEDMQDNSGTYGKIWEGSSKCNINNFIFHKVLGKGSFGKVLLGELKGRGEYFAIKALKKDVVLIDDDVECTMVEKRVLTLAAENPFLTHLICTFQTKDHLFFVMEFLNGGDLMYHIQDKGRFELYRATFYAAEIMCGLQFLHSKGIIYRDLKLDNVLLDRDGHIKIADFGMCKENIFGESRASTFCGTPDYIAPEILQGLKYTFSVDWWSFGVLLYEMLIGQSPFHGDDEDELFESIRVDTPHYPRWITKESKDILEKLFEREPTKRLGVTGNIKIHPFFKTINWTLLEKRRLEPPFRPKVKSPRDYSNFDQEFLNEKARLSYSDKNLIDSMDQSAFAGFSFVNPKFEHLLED

## Cn1c2ccccc2c2c3c(c4c5ccccc5n(CCC#N)c4c21)CNC3=O [Gö6976]
PKCα/β
  IC50: 2.3 nM
FAK Tyr-397
  level of FAK phosphorylation at Tyr-397: did not affect
PC12 cells [1]
  cell viability: did not affect cell viability
PC12 cells [2]; 3 h
  spreading of PC12 cells to laminin, rLG3, and Ln2-LG3-P2 after inhibitor pretreatment: not with Gö6976 significantly impaired

## COc1ccc2c(c1)CC[C@@H]1[C@@H]2CC[C@]2(C)[C@@H](NCCCCCCN3C(=O)C=CC3=O)CC[C@@H]12 [U73122]
PC12 cells [3]; 15 min, 1 h
  cell adhesion to rLG3 and Ln2-LG3-P2 after inhibitor pretreatment: reduced by U73122 in a dose-dependent manner
PC12 cells [3]; 15 min, 3 h
  cell spreading to rLG3 and Ln2-LG3-P2 after inhibitor pretreatment: reduced
PC12 cells [3]; rLG3 and Ln2-LG3-P2 plates, 3 h
  cell adhesion (as printed in legend of FIG. 15B): reduced by U73122 in a dose-dependent manner
PC12 cells [4]
  α1β1 integrin-mediated PC12 cell adhesion: reduced

## C[C@@H](N)[C@H]1CC[C@H](C(=O)Nc2ccncc2)CC1 [Y27632]
PC12 cells [5]
  stress fibers of PC12 cells to laminin, rLG3, and Ln2-LG3-P2: completely disassembled stress fibers

## CC(=O)c1c(O)c(C)c(O)c(Cc2c(O)c3c(c(C(=O)/C=C/c4ccccc4)c2O)OC(C)(C)C=C3)c1O [rottlerin]
fibroblasts
  stress fiber formation of fibroblasts pre-spread on fibronectin: does not impair stress fiber formation
PKCδ
  IC50: 3000 to 6000 nM
FAK Tyr-397
  level of FAK phosphorylation at Tyr-397: reduced
PC12 cells [6]
  stress fiber formation of PC12 cells already spread on laminin, rLG3, and Ln2-LG3-P2: did not interfere with stress fiber formation
PC12 cells [1]
  cell viability: did not affect cell viability
PC12 cells [2]; 1 h
  adhesion of PC12 cells to laminin, rLG3, and Ln2-LG3-P2 after inhibitor pretreatment: significantly impaired
PC12 cells [2]; 3 h
  spreading of PC12 cells to laminin, rLG3, and Ln2-LG3-P2 after inhibitor pretreatment: significantly impaired
  stress fiber formation of PC12 cells to laminin, rLG3, and Ln2-LG3-P2 after inhibitor pretreatment: significantly impaired
PC12 cells [2]; 24 h
  migration of PC12 cells to laminin, rLG3, and Ln2-LG3-P2 after inhibitor pretreatment: significantly impaired
